What was measured:
[1] = tested on: hES1-derived mixed culture of neurons, neural precursors/progenitors (NPs) and undifferentiated cells; test: Paclitaxel treatment of hESC-derived differentiating neural cultures (morphology, immunostaining); assay type: cell-based, human
Protocol: hES1 colonies grown on HFF feeders in DMEM supplemented with knockout (KO) serum replacement, PenStrep, non-essential amino-acids and glutamine (Invitrogen, USA), were enzymatically detached by collagenase. Intact colonies were transferred to non-adhesive culture plates to form neurospheres in NSC medium (DMEM-F12 medium, N2, B27, PenStrep and Glutamine) supplemented with noggin (Peprotech Asia, Rehovot, Israel) and 20 ng/ml bFGF. Spheres were grown for 3-5 weeks in suspension, collected, triturated and plated on 10 μg laminin/poly-D-lysine-coated coverslips in NSC medium supplemented with FGF8 and SHH for 6-8-days. At this stage, cells were treated with the appropriate concentrations of paclitaxel for 18-24 hours. Paclitaxel was then removed and cells were allowed to recuperate and continue with the differentiation process for additional 6-8 days in NSC medium with BDNF, GDNF, TGFβ3, NT4, cAMP, ascorbic acid.
Alternatively, cells at the end of the differentiation process—the cells are grown as spheres in suspension for 3-5 weeks and 2 more weeks as adherent culture: 1 week FGF8/SHH+1 week factors) are subjected to paclitaxel treatment.
Paclitaxel was added to cells at 2 ranges of concentrations of 0.2-20 nM and 100-500 nM. Cells are incubated at 37° C., in 5% CO2, 5% O2. Incubation times vary between 2 hours and 48 hours.

[2] = tested on: tumor-forming cells in transplanted hESC-derived cell preparations; test: Transplantation of paclitaxel-treated differentiated hESC into 6-OH dopamine-lesioned (Parkinsonian) rats; assay type: in vivo, rat
Protocol: 6-Hydroxydopamine (8 μg/rat) was stereotaxically injected (in a 4 μL solution) into the right substantia nigra of male Sprague-Dawley rats weighing 250-280 g; coordinates of injection: P=4.8, L=1.7, H=−8.6 from bregma. Fourteen days after 6-hydroxydopamine injection, rats were selected for transplantation if they had >350 rotations per hour after s.c. injection of apomorphine ([…]) (apomorphine being injected after 14 days) and, if 2 days later (after apomorphine injection) they also had >360 (mean 520±38) rotations per hour after i.p. injection of D-amphetamine (4 mg/kg).
Two to five days later (after the D-amphetamine injection), differentiated hESC that were induced according to the above specified protocols, either paclitaxel-treated or control-treated (DMSO), were detached with collagenase and were transplanted, 400,000 cells in 12 μL/animal along two tracts per striatum (coordinates: antero-medial tract, A=1, L=2, H=−7.5 to −4; posterio-lateral tract, A−P=0, L=3.5, H=−7.5 to −4.5). All rats received daily i.p. injections of 10 mg cyclosporine A per kg (Sandimmune; Novartis, Basel, Switzerland).
Rats were euthanized by overdose of pentobarbital and perfused with 4% paraformaldehyde saline. Serial 8 μm coronal frozen sections were prepared. […]

In the case of `CC(=O)O[C@H]1C(=O)[C@@]2(C)[C@H]([C@H](OC(=O)c3ccccc3)[C@]3(O)C[C@H](OC(=O)[C@H](O)[C@@H](NC(=O)c4ccccc4)c4ccccc4)C(C)=C1C3(C)C)[C@]1(OC(C)=O)CO[C@@H]1C[C@@H]2O` [paclitaxel], the “effect on mature cells with typical neuronal morphology” value ([1]; after treatment with paclitaxel, FIG. 1C) is reported as “unaffected by the treatment”, the “effect on undifferentiated cells and early neural progenitors that form rosette structures” value ([1]; after treatment with paclitaxel, FIGS. 1A-1C) is reported as “undergo apoptosis” and the “β-III tubulin expressing cells (neuronal marker) in culture” value ([1]; mixed culture of neurons and NPs after paclitaxel treatment, FIG. 2C) is reported as “enriched for β-III tubulin expressing cells”. The “nestin-positive cells (NP marker) in culture” value ([1]; mixed culture of neurons and NPs after paclitaxel treatment, FIG. 2D) was “reduced number of nestin-positive cells”, the “tumor development after transplantation of treated cells” value ([2]; cell preparations treated with 20-50 nM paclitaxel, 9 animals, 5-8 weeks post transplantation, all 6 controls with untreated cells developed large tumors) was “none developed tumors” and the “tyrosine hydroxylase (dopaminergic marker) expression of grafted paclitaxel-treated cells” value ([2]; grafted cells marked by human nuclear antigen in rat striatum, FIGS. 4A-4C) was “express tyrosine hydroxylase”.
